The results in this text go back to patent publication US12180509B2, “Methods for reprograming non-pluripotent cells into pluripotent stem cells” (Beihao Stem Cell and Regenerative Medicine Research …, priority 2015, dated 2024).

Each structure is given as a SMILES string. Structures can show the parent of a compound that is named as a salt. Bounds are passed on as bounds.

Common to all, as to assay type: cell-based, mouse
Assay [1] relates to MEFs from OG mice. Put plainly: Screen for chemical substitutes of Oct4 in OG-MEFs infected with Sox2, Klf4 and c-Myc. The note with it: OG-MEFs with viral expression of Sox2, Klf4 and c-Myc, no Oct4. As to the method:
To identify chemical substitutes of Oct4, MEFs from OG mice were plated at a density of 20,000 cells per well of a 12-well plate and infected with lentiviruses encoding Sox2, Klf4 and c-Myc. After infection, the medium was replaced with LIF-free ESC culture medium. Individual chemicals from small-molecule libraries were added to each well. The medium and chemicals were changed every 4 days. Chemical treatments were continued for 14-20 days or until GFP-positive colonies appeared. Primary hits were selected for further confirmation and optimization.
Small molecules that enable reprogramming in the absence of Oct4 were searched using Oct4 promoter-driven green fluorescent protein (GFP) expression (OG) mouse embryonic fibroblasts (MEFs), with viral expression of Sox2, Klf4, and c-Myc.

In another assay the test system is MEFs. In words: CiPSC induction from MEFs with small-molecule combinations (no XEN priming). The note with it: for replacement of DZNep in CiPSC generation: SAH hydrolase inhibitor in combination with VC6TF.
For assay [2], the system named is MEFs from OG mice. Put plainly: Screen for small molecules that facilitate late reprogramming (DOX-inducible Oct4 plus VC6T). The conditions noted are these: VC6T plus DOX-induced Oct4 for the first 4-8 days. The procedure:
To identify small molecules that facilitate late reprogramming, a doxycycline (DOX)-inducible Oct4 expression screening system was used (Li, et al., Cell Res. 21:196-204 (2011)).
MEFs from OG mice were plated as described above and infected with Fu-tet-hOct4 and FUdeltaGW-rtTA lentiviruses. The induction protocol was carried out as described above.
After infection, the culture medium was replaced with LIF-free ESC culture medium containing VC6T (VPA, CHIR99021, 616452, Tranylcypromine) plus DOX (1 μg/ml). Alternatively, MEFs harboring DOX-inducible Oct4 from Tet-On POUSF1 mouse strain B6; 129-Gt (ROSA)26Sor^tm1(TrtTA*M2)Jae Colla1^tm2(tetO-Pou5f1)Jae/J were used in this screen (Li, et al., Cell Res., 21:196-204 (2011)). These two DOX-inducible systems were only used in this screen, but not in complete chemical reprogramming. Individual chemicals from small-molecule libraries were added to each well. Small molecules were added at different culture time points. 5-aza-C(5-Azacytidine) and DZNep were added from day 8. The medium and chemicals were changed every 4 days; DOX was added only for the first 4-8 days. Chemical treatments were continued for 16-24 days or until GFP-positive colonies appeared. Primary hits were selected for further confirmation and optimization. CiPSC colonies were counted on day 44. […]

For assay [3], the system named is pluripotency-related genes and XEN marker genes. In words: Real-time PCR of pluripotency, XEN and MET genes during chemical reprogramming. The note with it: for expression of XEN marker genes (Sall4, Gata4, Sox17): stage 1, fibroblasts to XEN-like cells; for endogenous expression of Sall4 and Sox2 on withdrawal of the chemical: chemicals withdrawn from VC6TF, after 12 days. The procedure: Total RNA from an entire well of cultured cells was isolated using the RNeasy Plus MiniKit (QIAGEN). For a single colony, RNA was isolated using the RNeasy Micro Kit (QIAGEN). RNA was converted to cDNA using TransScript First-Strand cDNA Synthesis SuperMix (TransGen Biotech). PCR was carried out using Power SYBRR Green PCR Master Mix (Applied Biosystems) and performed on an ABI Prism 7300 Sequence Detection System. The data were analyzed using the delta-delta Ct method.
In general terms: Real-time PCR tracks product formation cycle by cycle.

In assay [4] the test system is intracellular levels SAH to SAM. Put plainly: SAM and SAH quantification by HPLC. The conditions noted are these: during chemical reprogramming, relative to MEFs. The procedure:
(§1) CAMP was quantified using the Direct cAMP ELISA Kit (Enzo) according to the manufacturer's protocol. For SAM and SAH quantification, cultured cells (1,000,000 cells) were trypsinized and homogenized by ultrasonication in 200 μl PBS. Then 40 μl of 400 mg/ml TCA was added. Cell extracts were incubated on ice for 30 min. After centrifugation at 4° C. (13,000 rpm, 15 min), the supernatants were filtered through a 0.22 μm filter and analyzed by high-performance liquid chromatography (HPLC, Shimadzu) with HILIC columns (Waters).

The test system of the next assay is Oct4 promoter. In words: DNA methylation (bisulfite sequencing) and H3K9 methylation (ChIP) at the Oct4 promoter. The note with it: presence versus absence of DZNep, day 32. As to the method: Genomic DNA was modified by bisulfite treatment and purified using the MethylCode™ Bisulfite Conversion Kit (Invitrogen) according to the manufacturer's protocol. The amplified fragments were cloned into the pEASY-blunt Vector (Transgene). Ten randomly picked clones from each sample were sequenced. ChIP was performed using the EZ-Magna ChIP A/G Kit (Millipore) according to the manufacturer's protocol. Anti-H3K27me3 (Abcam, ab6002), anti-H3K9me2 (Millipore, 07-441), anti-H3K4me3 (Abcam, ab8580) and anti-H3K9ac (Abcam, ab4441) antibodies were used. Following immunoprecipitation, DNA was analyzed by real-time PCR.

A further assay has as its system cAMP. Put plainly: Intracellular cAMP quantification (Direct cAMP ELISA). The note with it: MEF, FSK 10 μM versus DMSO control. The procedure:
as §1
The effect of inhibiting adenylate cyclase on the number of colonies generated by VC6TFZ was tested. […] The effect of replacing FSK with the cAMP analog (DBcAMP), alone or in combination with phosphodiesterase inhibitors, IBMX, or the phosphodiesterase inhibitor, rolipram and IBMX, on cell reprograming was also tested. Both DBcAMP and IBMX were used at 50 μM in the combination treatment.
(An ELISA detects its analyte on a solid surface through an enzyme-linked reagent.)

Regarding `Cc1[nH]c2ccc(O)cc2c1CCN` [2-Me-5HT, 2-Methyl-5-hydroxytryptamine hydrochloride], the “chemical substitute for Oct4 (iPSC induction)” value (“chemical substitute for Oct4” below) in the assay with MEFs from OG mice [1] is recorded as “identified as chemical “substitutes” for Oct4”.

On to `C[C@H]1O[C@@H](n2cnc3c(N)ncnc32)C[C@@H]1O` [2′5′ddAdo, 2′,5′-Dideoxyadenosine], for which the “number of colonies formed by VC6TFZ” value in the assay on MEFs (inhibition of adenylate cyclase during VC6TFZ treatment) is “decreased the number of colonies”.

On to `Nc1ncn([C@@H]2O[C@H](CO)[C@@H](O)[C@H]2O)c(=O)n1` [5-Azacytidine], for which the “small molecule hit facilitating late reprogramming” value in the assay on MEFs from OG mice [2] is given as “identified in this screen”.

`CC1(C)CCC(C)(C)c2cc(C(=O)Nc3ccc(C(=O)O)cc3)ccc21` [AM580, 4-[(5,6,7,8-Tetrahydro-5,5,8,8-tetramethyl-2-naphthalenyl)carboxamido]benzoic acid]: the “expression of XEN marker genes (Sall4, Gata4, Sox17)” value in assay [3] is “promote the expression of XEN marker genes”.

Take `Nc1ncnc2c1ncn2C(C=O)OC(C=O)CO` (centres unmarked) [Adox, Adenosine, periodate oxidized]: the “replacement of DZNep in CiPSC generation” value in the assay on MEFs is recorded as “useful in replacing DZNep in reprogramming”.

With `Cc1cnc(-c2cnc(NCCNc3ccc(C#N)cn3)nc2-c2ccc(Cl)cc2Cl)[nH]1` [CHIR99021, 6-[[2-[[4-(2,4-Dichlorophenyl)-5-(5-methyl-1H-imidazol-2-yl)-2-pyrimidinyl]amino]ethyl]amino]-3-pyridinecarbonitrile], the “endogenous expression of Sall4 and Sox2 on withdrawal of the chemical” value (from here on “endogenous expression of Sall4 and Sox2”) in assay [3] was “essential in activating the endogenous expression of Sall4 and Sox2”. Moreover, in assay [3] (increased concentration of CHIR99021 (20 μM versus 10 μM) in VC6TF, 12 days), the “increase in the expression of Gata4, Sox17 and EpCAM” value is on record as “up to 10 fold”.

For the compound `NC(=O)c1ccc(-c2nc(-c3ccc4c(c3)OCCO4)c(-c3ccccn3)[nH]2)cc1` [D4476, 4-[4-(2,3-Dihydro-1,4-benzodioxin-6-yl)-5-(2-pyridinyl)-1H-imidazol-2-yl]benzamide], in the assay with MEFs from OG mice [1], the “chemical substitute for Oct4” value is given as “identified as chemical “substitutes” for Oct4”.

In the case of `Nc1nccc2c1ncn2[C@@H]1O[C@H](CO)[C@@H](O)[C@H]1O` [DZA, 3-Deazaadenosine], the “replacement of DZNep in CiPSC generation” value in the assay on MEFs is “useful in replacing DZNep in reprogramming”.

As to `Nc1nccc2c1ncn2[C@@H]1C=C(CO)[C@@H](O)[C@H]1O` [DZNep, 3-deazaneplanocin A], the “small molecule hit facilitating late reprogramming” value with MEFs from OG mice [2] is given as “identified in this screen”. Further, the “concentration ratio of SAH to SAM” value in assay [4] is listed as “elevates the concentration ratio of SAH to S-adenosylmethionine (SAM)”. The Oct4 expression entry in assay [3] (after addition of DZNep in the late phase of chemical reprogramming) was “enhanced significantly”. Also, in the assay on Oct4 promoter, the “DNA methylation and H3K9 methylation at the Oct4 promoter” value is reported as “significantly decreased”.

As to `CC(C)N(CCCNC(=O)Nc1ccc(C(C)(C)C)cc1)C[C@H]1O[C@@H](n2ccc3c(N)ncnc32)[C@H](O)[C@@H]1O` [EPZ004777, 1-(3-((((2R,3S,4R,5R)-5-(4-amino-7H-pyrrolo[2,3-d]pyrimidin-7-yl)-3,4-dihydroxytetrahydrofuran-2-yl)methyl)(isopropyl)amino)propyl)-3-(4-(tert-butyl)phenyl)urea], the “expression of XEN marker genes (Sall4, Gata4, Sox17)” value in assay [3] is “promote the expression of XEN marker genes”.

`C=C[C@@]1(C)CC(=O)[C@]2(O)[C@@]3(C)[C@@H](O)CCC(C)(C)[C@@H]3[C@H](O)[C@H](OC(C)=O)[C@@]2(C)O1` [Forskolin]: the “intracellular cAMP level” value with cAMP is listed as “significantly elevates the CAMP level”. The “small molecule hit facilitating late reprogramming” value in the assay with MEFs from OG mice [2] was “identified in this screen”. The “endogenous expression of Sall4 and Sox2” value in assay [3] was “essential in activating the endogenous expression of Sall4 and Sox2”. In the assay with MEFs from OG mice [1], the “chemical substitute for Oct4” value was “identified as chemical “substitutes” for Oct4”.

In the case of `Nc1ncnc2c1ncn2[C@@H]1C=C(CO)[C@@H](O)[C@H]1O` [NEPA, (−)-Neplanocin A], in the assay with MEFs, the “replacement of DZNep in CiPSC generation” value was “useful in replacing DZNep in reprogramming”.

In the case of `CCCCC[C@H](O)/C=C/[C@H]1[C@H](O)CC(=O)[C@@H]1C/C=C\CCCC(=O)O` [Prostaglandin E2], in the assay with MEFs from OG mice [2], the “small molecule hit facilitating late reprogramming” value is reported as “identified in this screen”.

As to `O=C(O)[C@@H](Cc1c[nH]c2ccccc12)N1C(=O)C2=CCCC=C2C1=O` [RG108], the “small molecule hit facilitating late reprogramming” value with MEFs from OG mice [2] is on record as “identified in this screen”.

As for `COc1ccc(C2CNC(=O)C2)cc1OC1CCCC1` (centres unmarked) [Rolipram], the “small molecule hit facilitating late reprogramming” value in the assay on MEFs from OG mice [2] is recorded as “identified in this screen”.

For `C/C(=C\c1ccc(C(=O)O)cc1)c1ccc2c(c1)C(C)(C)CCC2(C)C` [TTNPB, 4-[(E)-2-(5,6,7,8-Tetrahydro-5,5,8,8-tetramethyl-2-naphthalenyl)-1-propenyl]benzoic acid], the “chemical reprogramming efficiency enhanced, factor” value in the assay on MEFs (TTNPB as booster added to the chemical cocktail (C6FZ or VC6TFZ) in MEFs) is ≤ 40. The reprogramming frequency entry in the assay on MEFs (with TTNPB, comparable to transcription factor-induced reprogramming) is recorded as “up to 0.2%”.

For the compound `Cc1cccc(-c2n[nH]cc2-c2ccc3ncccc3n2)n1` [compound 616452, 2-(3-(6-Methylpyridin-2-yl)-1H-pyrazol-4-yl)-1,5-naphthyridine], the “endogenous expression of Sall4 and Sox2” value in assay [3] is “essential in activating the endogenous expression of Sall4 and Sox2”.

With `CCCC(=O)[O-].[Na+]` [sodium butyrate, Sodium butyrate], the “small molecule hit facilitating late reprogramming” value in the assay with MEFs from OG mice [2] was “identified in this screen”.
